Consider eight molecules from article PMC9467581 (Journal of Enzyme Inhibition and Medicinal Chemistry, 2022).

What is called Ki is a measure of affinity in units of concentration, obtained from inhibition or displacement. A word on the IC50: it is the point on the concentration scale where inhibition reaches its midpoint.

Structures can show the parent of a compound that is named as a salt. Where two headings read alike, the source gives them in different places.

The target of one experiment is AChE. The settings on record: mixed inhibition of AChE; cited from earlier work.
Experiment [1] deals with T1, eqBuChE (BuChE from equine serum) (Equus caballus, UniProt P81908).
T1 construct: eqBuChE (BuChE from equine serum); from tissue; host or cells: equine serum
The experiment can be described thus: biochemical. The format is biochemical. Conditions: for BuChE selectivity: IC50(AChE)/IC50(BuChE); for IC50: [S] = 112 µM, mean ± SD. The protocol: (§1) The inhibitory activity of 12a–12d against AChE and BuChE was carried out following minor modifications of the Ellman assay,[30] as reported previously[31] using Thermo Scientific^TM Varioskan^TM LUX microplate reader and Greiner F-bottom 96-well plates.

Experiment [2] has as its target T2, eeAChE (AChE from Electrophorus electricus) (Electrophorus electricus, UniProt O42275). The experiment can be described thus: biochemical. Conditions: [S] = 121 µM; mean ± SD. The procedure:
as §1

In experiment [3] the target is T2, eeAChE (AChE from Electrophorus electricus). Conditions: [S] = 121 µM; cited from earlier work.
A further experiment concerns the target BuChE. Also noted: method as in PMID 33228403. Conditions: mixed inhibition of BuChE; cited from earlier work.

T1 sequence (P81908 whole entry): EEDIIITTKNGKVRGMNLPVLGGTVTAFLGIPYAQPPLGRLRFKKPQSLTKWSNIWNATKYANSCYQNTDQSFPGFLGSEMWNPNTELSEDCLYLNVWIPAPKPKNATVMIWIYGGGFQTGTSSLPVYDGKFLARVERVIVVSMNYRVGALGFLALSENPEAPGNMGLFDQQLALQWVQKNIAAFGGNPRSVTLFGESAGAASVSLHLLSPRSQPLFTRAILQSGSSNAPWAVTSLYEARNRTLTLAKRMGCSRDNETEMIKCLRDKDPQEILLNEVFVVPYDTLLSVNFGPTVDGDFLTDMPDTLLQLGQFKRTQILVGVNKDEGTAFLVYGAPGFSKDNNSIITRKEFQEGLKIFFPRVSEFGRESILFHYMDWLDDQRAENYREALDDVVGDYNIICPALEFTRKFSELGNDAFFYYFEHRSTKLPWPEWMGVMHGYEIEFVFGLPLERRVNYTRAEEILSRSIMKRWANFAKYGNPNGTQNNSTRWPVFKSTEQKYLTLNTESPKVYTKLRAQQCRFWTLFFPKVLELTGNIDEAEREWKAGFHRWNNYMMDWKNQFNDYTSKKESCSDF
T2 sequence (O42275 24-633): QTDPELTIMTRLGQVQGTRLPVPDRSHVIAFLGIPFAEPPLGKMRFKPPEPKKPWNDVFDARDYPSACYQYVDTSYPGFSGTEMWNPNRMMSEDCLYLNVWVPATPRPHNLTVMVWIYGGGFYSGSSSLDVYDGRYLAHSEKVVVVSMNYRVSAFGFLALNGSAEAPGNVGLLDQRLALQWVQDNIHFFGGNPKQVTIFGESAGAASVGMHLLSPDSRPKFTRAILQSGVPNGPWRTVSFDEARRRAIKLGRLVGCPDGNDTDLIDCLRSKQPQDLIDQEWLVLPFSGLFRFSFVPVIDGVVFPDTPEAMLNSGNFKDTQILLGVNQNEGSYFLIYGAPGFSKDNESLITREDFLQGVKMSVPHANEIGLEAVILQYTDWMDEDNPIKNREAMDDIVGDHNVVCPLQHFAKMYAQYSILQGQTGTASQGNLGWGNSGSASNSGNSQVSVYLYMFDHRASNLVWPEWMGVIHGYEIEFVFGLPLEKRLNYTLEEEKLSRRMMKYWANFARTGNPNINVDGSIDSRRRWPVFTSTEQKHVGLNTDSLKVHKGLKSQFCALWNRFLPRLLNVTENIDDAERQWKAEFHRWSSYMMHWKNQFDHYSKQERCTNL

For the molecule `OC[C@@H]1[C@@H](O)[C@H](O)[C@@H](O)CN1Cc1cn(CCCCCCNc2c3c(nc4ccccc24)CCCC3)nn1` [Compound 9], at AChE, the Ki is 0.0071 µM and the αKi is given as 17.4 nM.

In experiment [1], `OC[C@@H]1[C@@H](O)[C@H](O)[C@@H](O)CN1CCCn1cc(Cn2nnc3ccccc32)nn1` [Compound 12a] had a BuChE selectivity above 10 and a half-inhibitory concentration (IC50) of 50 ± 3 µM. Further, in experiment [2], the half-maximal inhibitory concentration (IC50) was above 500 µM.

For the molecule `OC[C@@H]1[C@@H](O)[C@H](O)[C@@H](O)CN1CCCCCCCCCCn1cc(Cn2nnc3ccccc32)nn1` [Compound 12d, N-(1-(2-((1H-benzo[1,2,3]triazol-1-yl)methyl)-1H-1,2,3-triazol-1-yl)decyl)-1-deoxynojirimycin hydrochloride], the values for the IC50 in experiment [1] and in experiment [2] were 17 ± 0.7 µM and above 500 µM, respectively.

In experiment [1], `OC[C@@H]1[C@@H](O)[C@H](O)[C@@H](O)CN1CCCCCCCCn1cc(Cn2nnc3ccccc32)nn1` [Compound 12c, N-(1-(2-((1H-benzo[1,2,3]triazol-1-yl)methyl)-1H-1,2,3-triazol-1-yl)octyl)-1-deoxynojirimycin hydrochloride] registered a BuChE selectivity above 19 and an IC50 of 26 ± 0.7 µM. In experiment [2], this molecule yielded an IC50 above 500 µM.

Take `OC[C@@H]1[C@@H](O)[C@H](O)[C@@H](O)CN1CCCCCCn1cc(Cn2nnc3ccccc32)nn1` [Compound 12b]: in experiment [1], the “fold more potent BuChE inhibitor than 1-DNJ” value is reported as 1.5 fold, the BuChE selectivity amounted to 9.7 and half-maximal inhibition (IC50) required 6.7 ± 0.7 µM. Further, the “uncompetitive inhibition constant αKi” value in experiment [1] (BuChE, Cornish-Bowden plots) stood at 12 ± 1 µM. Besides, the type of inhibition entry in experiment [1] (BuChE, Cornish-Bowden plots (1/V vs. [I] and [S]/V vs. [I])) was “mixed inhibitor”. Further, in experiment [1] (BuChE, Cornish-Bowden plots, read-out: competitive inhibition constant Ki), the inhibition constant Ki was found to be 4.9 ± 0.4 µM. Besides, half-maximal inhibition in experiment [2] (IC50) was put at 65 ± 2 µM.

On to `OC[C@@H]1[C@@H](O)[C@H](O)[C@@H](O)CN1CCCCCNC(=[Se])Nc1ccc(Br)cc1` [Compound 8], for which the Ki at AChE is 5.8 µM.

Take `OC[C@H]1NC[C@H](O)[C@@H](O)[C@@H]1O` [Compound 4, 1-deoxynojirimycin, reference compound]: the BuChE selectivity in experiment [1] is above 10. Further, the IC50 in experiment [3] was above 100 µM.

As for `COc1ccc(CCOCCCCCCN2C[C@H](O)[C@@H](O)[C@H](O)[C@H]2CO)cc1OC` [Compound 10], at BuChE, the Ki is 1.4 µM and the αKi was 4.5 µM.
